{"source": "patent US7157256B2", "about": "“Method for producing para-hydroxystyrene and other multifunctional aromatic compounds using two-phase extractive fermentation” (E. I. du Pont de Nemours and Company, priority 2003, dated 2007)", "assay_type_in_all_cases": "cell-based", "key": {"[1]": {"test_system": "P. putida KT2440", "assay": "Effect of pHCA on the growth of Pseudomonas putida KT2440", "conditions": "pHCA 25 g/L", "method": "(§1) Liquid cultures of these strains were grown in 10 mL of LB medium containing 0.25% glucose and 10 mM MgSO4 in 50 mL screw-capped, glass tubes at 30° C. and 200 rpm in an incubator shaker. In all subsequent media, pHCA was added from a 60 g/L stock solution, which was adjusted to pH 7.0 using KOH and then filter-sterilized. Samples of each culture were streaked on LB agar plates containing 0.25% glucose, 10 mM MgSO4 and 30 g/L pHCA and grown at 30° C. Individual colonies taken from these plates were grown to stationary phase at 30° C. in 10 mL of LB medium containing 0.5% glucose, 10 mM MgSO4 and 25 g/L pHCA in 50 mL screw-capped, glass tubes. These stationary phase cultures were diluted 1:25 in fresh LB medium containing 0.5% glucose, 10 mM MgSO4 and either 0 or 25 g/L pHCA and grown in 50 mL screw-capped, glass tubes at 30° C. and 200 rpm in an incubator shaker. Cell growth in these cultures was monitored by taking aliquots and measuring the OD at 600 nm of the culture or dilutions of the culture, which were made with LB medium. These OD measurements were used to calculate the doubling time and growth rate as a percentage of growth observed in test medium without pHCA."}, "[2]": {"test_system": "P. putida NCIMB 9866", "assay": "Effect of pHCA on the growth of Pseudomonas putida NCIMB 9866", "conditions": "pHCA 25 g/L", "method": "as §1"}, "[3]": {"test_system": "E. coli TY1 (DGL430)", "assay": "Effect of pHCA and pHS on growth and fermentation of E. coli, shake flasks", "method": "This study was done using E. coli TY1 (DGL430), a tyrosine overproducing strain obtained from OmniGene Bioproducts, Inc. (Cambridge, Mass.). This strain also produces phenylalanine. The seed culture of this strain was propagated in a medium consisting of MgSO4.7H2O (0.5 g/L), (NH4)2SO4 (4 g/L), MOPS (20.9 g/L) and 10 mL of phosphate solution. The pH of the seed medium was adjusted to pH 6.8 and then the medium was steam-sterilized. The phosphate solution contained KH2PO4 (57.3 g/L) and K2HPO4 (110.2 g/L) and was adjusted to pH 6.8. The following solutions were then aseptically added to the seed medium to give the final concentration given in parentheses: thiamine (1 mg/L), glucose (1 g/L), lactose (15 g/L), 5 mL of a trace element solution, and tetracycline (5 mg/L). The trace element solution contained citric acid (10 g/L), CaCl2.2H2O (1.5 g/L), FeSO4.7H2O (5 g/L), ZnSO4.7H2O (0.39 g/L) and CuSO4.5H2O (0.38 g/L). The seed medium was inoculated from a frozen pre-seed culture and was grown in 250 mL baffled flasks in an Innova 4000 incubator shaker (New Brunswick Scientific Co., Edison, N.J.), incubated at 35° C. and 300 rpm for 12–16 h. One milliliter of this seed culture was used to inoculate each of the test cultures.\nThe test medium was 50 mL of an aqueous solution containing: (NH4)2SO4 (4 g), 1 mL of phosphate solution, MgSO4.7H2O (0.5 g), and MOPS (20.9 g), with the pH adjusted to 7.0. After sterilization of this medium, thiamine (1 mg/L), 5 mL of trace element solution, glucose (2 g/L), lactose (15 g/L), IPTG (0.5 mM), and tetracycline (10 mg/L) were aseptically added to give the final concentration given in parentheses. The 250 mL baffled flasks containing 50 mL of the test medium were inoculated with the seed culture and were incubated at 35° C. and 300 rpm for 42 h in the incubator shaker. Samples of the culture were taken at various times and the optical density at 550 nm (OD550) was measured spectrophotometrically. The pH of these samples was also measured. After completion of the fermentation, the tyrosine and phenylalanine concentrations in the culture were measured using HPLC, as described supra.\nThis experiment was repeated using pHS in place of pHCA."}, "[4]": {"conditions": "adapted cells, LB medium, 30° C."}, "[5]": {"conditions": "percentage of growth without pHCA"}}, "note": "Values joined by “and” are separate entries in the source; they are usually repeats but may differ in a detail not shown here. Identical values can stand only once.", "data": [{"smiles": "O=C(O)C=Cc1ccc(O)cc1", "note": "[pHCA, para-hydroxycinnamic acid]", "values": [{"measurement": "Doubling Time", "setting": "[1]; [4]", "value": 79, "unit": "min"}, {"measurement": "Growth Rate, %", "setting": "[1]; [5]", "value": 21, "unit": "%"}, {"measurement": "Doubling Time", "setting": "[2]; [4]", "value": 105, "unit": "min"}, {"measurement": "Growth Rate, %", "setting": "[2]; [5]", "value": 18, "unit": "%"}, {"measurement": "OD 550", "setting": "[3]; 17.5 h, pHCA added 1.00 g/L (as sodium pHCA)", "value": "2.47 and 2.41"}, {"measurement": "OD 550", "setting": "[3]; 17.5 h, pHCA added 2.00 g/L", "value": "1.49 and 1.27"}, {"measurement": "OD 550", "setting": "[3]; 17.5 h, pHCA added 4.00 g/L", "value": "0.20 and 0.22"}, {"measurement": "OD 550", "setting": "[3]; 17.5 h, pHCA added 8.00 g/L", "value": 0.15}, {"measurement": "OD 550", "setting": "[3]; 17.5 h, pHCA added 16.00 g/L", "value": "0.19 and 0.13"}, {"measurement": "OD 550", "setting": "[3]; 29 h, pHCA added 1.00 g/L", "value": "3.22 and 3.57"}, {"measurement": "OD 550", "setting": "[3]; 29 h, pHCA added 2.00 g/L", "value": "1.77 and 1.47"}, {"measurement": "OD 550", "setting": "[3]; 29 h, pHCA added 4.00 g/L", "value": "1.21 and 1.61"}, {"measurement": "OD 550", "setting": "[3]; 29 h, pHCA added 8.00 g/L", "value": 0.16}, {"measurement": "OD 550", "setting": "[3]; 29 h, pHCA added 16.00 g/L", "value": "0.21 and 0.13"}, {"measurement": "OD 550", "setting": "[3]; 42 h, pHCA added 1.00 g/L", "value": "3.37 and 3.48"}, {"measurement": "OD 550", "setting": "[3]; 42 h, pHCA added 2.00 g/L", "value": "1.62 and 1.53"}, {"measurement": "Phe", "setting": "[3]; 42 h, pHCA added 2.00 g/L", "value": 95, "unit": "mg/L"}, {"measurement": "Tyr", "setting": "[3]; 42 h, pHCA added 2.00 g/L", "value": "100 mg/L and 105 mg/L"}, {"measurement": "OD 550", "setting": "[3]; 42 h, pHCA added 4.00 g/L", "value": "1.54 and 1.55"}, {"measurement": "Phe", "setting": "[3]; 42 h, pHCA added 4.00 g/L", "value": "15 mg/L and 20 mg/L"}, {"measurement": "Tyr", "setting": "[3]; 42 h, pHCA added 4.00 g/L", "value": "65 mg/L and 75 mg/L"}, {"measurement": "OD 550", "setting": "[3]; 42 h, pHCA added 8.00 g/L", "value": "0.18 and 0.17"}, {"measurement": "Phe", "setting": "[3]; 42 h, pHCA added 8.00 g/L", "value": 10, "unit": "mg/L"}, {"measurement": "Tyr", "setting": "[3]; 42 h, pHCA added 8.00 g/L", "value": "15 mg/L and 25 mg/L"}, {"measurement": "OD 550", "setting": "[3]; 42 h, pHCA added 16.00 g/L", "value": "0.23 and 0.14"}, {"measurement": "Phe", "setting": "[3]; 42 h, pHCA added 16.00 g/L", "value": 5, "unit": "mg/L"}, {"measurement": "Tyr", "setting": "[3]; 42 h, pHCA added 16.00 g/L", "value": 0, "unit": "mg/L"}, {"measurement": "Phe", "setting": "[3]; 42 h, phenylalanine in culture, pHCA added 1.00 g/L", "value": "150 mg/L and 155 mg/L"}, {"measurement": "Tyr", "setting": "[3]; 42 h, tyrosine in culture, pHCA added 1.00 g/L", "value": "210 mg/L and 190 mg/L"}, {"measurement": "concentration at which complete inhibition of growth / no growth was observed", "setting": "[3]; E. coli TY1 shake flask", "value": 8, "unit": "g/L"}, {"measurement": "concentration that inhibited cell growth", "setting": "[3]; E. coli TY1 shake flask", "value": 1, "unit": "g/L"}]}]}
